# Laboratory results reported in patent US20100255004A1, “RECEPTOR TYROSINE KINASE PROFILING” (Dana Farber Cancer Institute, priority 2007, published 2010).
# Counter-ions that a name gives are not always drawn.
# How the values were obtained:
# [1] = target: T1, PDGFRβ (Homo sapiens, UniProt P09619); assay: Immunoblot of P-PDGFRβ in LN382 and LN18 cells; format: cell-based; conditions: 1 μM, 24 hours (FIG. 4F)
# T1 construct: endogenous in cells; host or cells: LN382 and LN18 glioma cells
# From the text: DNA is labeled with Hoechst 33342.
# [2] = target: T2, MET (Homo sapiens, UniProt P08581); assay: RTK antibody array, phosphorylation of MET in U87MG-EGFR* cells; format: cell-based; set-up: endogenous in cells; conditions: 10 μM, RTK antibody array (FIG. 3B)
# T2 sequence (P08581 25-1390): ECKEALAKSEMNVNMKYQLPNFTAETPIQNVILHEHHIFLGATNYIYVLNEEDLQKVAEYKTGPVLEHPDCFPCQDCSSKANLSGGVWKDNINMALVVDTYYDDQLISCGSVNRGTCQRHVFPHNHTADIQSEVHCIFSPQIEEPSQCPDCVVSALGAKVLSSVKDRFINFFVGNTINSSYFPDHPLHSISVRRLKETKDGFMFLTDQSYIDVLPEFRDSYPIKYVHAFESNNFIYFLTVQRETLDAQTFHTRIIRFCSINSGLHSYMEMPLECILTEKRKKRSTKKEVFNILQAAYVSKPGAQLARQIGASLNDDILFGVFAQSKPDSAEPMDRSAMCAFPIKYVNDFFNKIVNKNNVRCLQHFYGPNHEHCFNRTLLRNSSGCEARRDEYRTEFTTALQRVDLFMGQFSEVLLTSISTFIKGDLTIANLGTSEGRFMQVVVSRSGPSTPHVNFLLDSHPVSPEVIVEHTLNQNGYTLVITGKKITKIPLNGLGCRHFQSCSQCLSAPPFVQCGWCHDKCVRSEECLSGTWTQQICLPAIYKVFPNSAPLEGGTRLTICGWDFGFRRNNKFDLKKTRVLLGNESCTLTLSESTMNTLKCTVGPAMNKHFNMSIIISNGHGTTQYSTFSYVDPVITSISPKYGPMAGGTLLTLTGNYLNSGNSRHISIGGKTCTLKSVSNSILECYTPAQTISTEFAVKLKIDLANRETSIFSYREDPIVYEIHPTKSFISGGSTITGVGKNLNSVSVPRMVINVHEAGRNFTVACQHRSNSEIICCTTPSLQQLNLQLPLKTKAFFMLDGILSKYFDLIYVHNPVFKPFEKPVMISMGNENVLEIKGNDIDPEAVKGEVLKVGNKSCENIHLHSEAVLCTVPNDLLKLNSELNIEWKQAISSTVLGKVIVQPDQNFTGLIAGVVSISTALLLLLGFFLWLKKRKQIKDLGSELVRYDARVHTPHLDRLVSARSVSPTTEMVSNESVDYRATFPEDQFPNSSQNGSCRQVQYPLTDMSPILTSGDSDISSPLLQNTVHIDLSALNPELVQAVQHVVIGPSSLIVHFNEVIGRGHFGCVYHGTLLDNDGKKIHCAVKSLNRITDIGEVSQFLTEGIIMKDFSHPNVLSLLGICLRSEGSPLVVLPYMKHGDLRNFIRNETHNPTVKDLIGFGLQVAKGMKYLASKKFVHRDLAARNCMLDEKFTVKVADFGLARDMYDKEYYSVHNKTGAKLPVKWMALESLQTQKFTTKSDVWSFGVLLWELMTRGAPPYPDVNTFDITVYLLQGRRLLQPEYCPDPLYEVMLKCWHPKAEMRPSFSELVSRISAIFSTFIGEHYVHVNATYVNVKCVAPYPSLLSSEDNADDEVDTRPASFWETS
# Protocol: Error bars indicate SEM, n=4.
# Following 30 min incubation in lysis buffer at 4° C., lysates were cleared by centrifugation at 10 k 10 min 4° C., then protein concentrations were determined by BioRad DC Protein Assay. […] Tyrosine-phosphorylated proteins were visualized by separation on NuPAGE 3-8% Tris-Acetate gels (Invitrogen), blotted onto nitrocellulose, blocked with 3% Immunoblot Blocking Reagent (Upstate), then incubated with anti-phosphotyrosine antibody (4G10, Upstate). […] Co-immunoprecipitated proteins were detected with either mouse or rabbit TrueBlot HRP conjugated secondaries (eBioscience). • Antibody arrays. Cells were harvested as for immunoprecipitations above. Snap-frozen tumors were thawed in immunoprecipitation lysis buffer, homogenized by hand 50× with disposable 1.5 mL pestles, incubated 30 min 4° C. with inversion, homogenized 50×, then cleared by centrifugation at 10 k 10 min 4° C. Proteins were quantitated as above. RTK antibody arrays were purchased from R&D Systems (#ARY-001) and performed as recommended but with 2 mg protein lysate per array. • Soft agar colony formation.
# [3] = tested on: PDGFR; assay: p-PDGFR in LNZ308 cells; format: cell-based, human
# From the text: We then correlated inhibition of PI3K activity with biological effects of various combinations of RTK inhibitor treatment regimens. […] Second, we are mindful of the limitation of detection sensitivity by current antibody array technology and that a particular RTK may not be represented or be activated at an undetectable but biologically-relevant level. As shown in FIG. 4C-E, combination inhibition of RTKs in LN382 and LNZ308, both PTEN mutant GBM lines, effectively extinguished PI3K activity.
# [4] = tested on: PI3K signaling (p85α/GAB1 complex, P-AKT, P-S6); assay: GAB1 immunoprecipitation and immunoblots of P-AKT and P-S6 in U87MG-EGFR* cells; format: cell-based, human; conditions: U87MG-EGFR* cells (PTEN mutant), 10 μM each inhibitor (FIG. 3C)
# Protocol: U87MG parental cells or cells constitutively expressing wt EGFR, the activating vIII deletion mutant (EGFR*) or the vIII mutant with an inactivating mutation in its kinase domain (EGFR*-KD) were immunoprecipitated with an antibody to the RTK/PI-3K adaptor protein, GAB1 (left panel), then immunoblots were probed with the indicated antibodies. […] Whole cell extracts (WCE) from the same cells were immunoblotted with the indicated antibodies. […] C. […] Bottom panel: Un-immunoprecipitated whole cell extracts were immunoblotted with the indicated antibodies. […] Error bars indicate SEM, n=4. […] U87MG-EGFR* cells were transfected with empty vector, HRASV12, myristoylated-AKT, or p110α-CAAX, then treated with 10 μM each of erlotinib (E), SU11274 (S), and imatinib (I) in 0.05% serum-containing medium for 72 hours prior to assaying cell viability.
# We also immunoblotted whole cell extracts with antibodies against MAPK and phosphorylated versions of AKT, MAPK, and S6 (FIG. 3C, bottom panel):
# Following 30 min incubation in lysis buffer at 4° C., lysates were cleared by centrifugation at 10 k 10 min 4° C., then protein concentrations were determined by BioRad DC Protein Assay. […] Co-immunoprecipitated proteins were detected with either mouse or rabbit TrueBlot HRP conjugated secondaries (eBioscience). • Antibody arrays.
# [5] = target: T2, MET; assay: Immunoblot of P-MET in LN382 and LN18 cells; format: cell-based; set-up: endogenous in cells; host or cells: LN382 and LN18 glioma cells; conditions: 1 μM, 24 hours (FIG. 4F)
# Protocol: A-E. The glioma cell lines LN18 (wt PTEN), SF767 (wt PTEN), LN382 (mut PTEN) and LNZ308 (mut PTEN) were incubated in 0.05% serum-containing medium cells and treated with 10 μM erlotinib (E or T), 10 μM SU11274 (S), and/or 10 μM imatinib (I or G) and immunoblotted as in FIG. 3. […] LN382 and LN18 cells were treated with 1 μM each RTK inhibitor for 24 hours, then immunoblotted with antibodies to P-PDGFRβ and P-MET.
# T1 sequence (P09619 33-1106): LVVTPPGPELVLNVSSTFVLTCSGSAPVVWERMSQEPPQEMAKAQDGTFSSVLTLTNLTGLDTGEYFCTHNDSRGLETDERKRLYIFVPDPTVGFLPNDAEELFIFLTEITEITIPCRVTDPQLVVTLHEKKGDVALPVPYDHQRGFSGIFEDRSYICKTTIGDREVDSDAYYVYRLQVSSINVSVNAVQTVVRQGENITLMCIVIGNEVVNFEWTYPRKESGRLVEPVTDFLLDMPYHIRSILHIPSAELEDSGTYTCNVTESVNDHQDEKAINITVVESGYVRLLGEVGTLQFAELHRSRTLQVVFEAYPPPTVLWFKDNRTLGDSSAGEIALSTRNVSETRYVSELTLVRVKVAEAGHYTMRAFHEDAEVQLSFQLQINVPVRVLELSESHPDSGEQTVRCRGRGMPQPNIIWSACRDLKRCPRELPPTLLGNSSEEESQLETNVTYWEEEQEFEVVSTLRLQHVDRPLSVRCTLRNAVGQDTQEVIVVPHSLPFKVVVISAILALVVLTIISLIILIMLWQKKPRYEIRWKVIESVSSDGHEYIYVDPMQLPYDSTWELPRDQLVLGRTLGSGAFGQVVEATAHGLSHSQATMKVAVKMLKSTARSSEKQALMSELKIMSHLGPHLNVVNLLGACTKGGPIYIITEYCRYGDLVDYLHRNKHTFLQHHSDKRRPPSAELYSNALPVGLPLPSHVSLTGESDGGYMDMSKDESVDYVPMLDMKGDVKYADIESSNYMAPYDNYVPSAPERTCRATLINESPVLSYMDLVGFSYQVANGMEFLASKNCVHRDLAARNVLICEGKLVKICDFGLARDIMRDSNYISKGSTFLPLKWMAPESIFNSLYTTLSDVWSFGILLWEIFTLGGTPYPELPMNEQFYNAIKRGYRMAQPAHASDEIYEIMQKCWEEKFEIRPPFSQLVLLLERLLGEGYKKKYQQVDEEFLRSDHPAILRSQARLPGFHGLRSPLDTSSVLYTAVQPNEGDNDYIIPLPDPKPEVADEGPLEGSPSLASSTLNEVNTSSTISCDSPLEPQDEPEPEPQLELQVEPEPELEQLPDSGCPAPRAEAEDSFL
SMILES,P-PDGFRβ [1],phosphorylation of intended target RTK (P-MET) [2],p-PDGFR [3],PI3K association with GAB1 and downstream activation of AKT and S6 [4],phosphorylation of MET [5]
Cc1[nH]c(/C=C2\C(=O)Nc3ccc(S(=O)(=O)N(C)c4cccc(Cl)c4)cc32)c(C)c1C(=O)N1CCN(C)CC1 [SU11274],decrease in P-PDGFRβ,effectively blocked phosphorylation,diminishes p-PDGFR,no discernable effect,
"Cc1ccc(NC(=O)c2ccc(CN3CCN(C)CC3)cc2)cc1Nc1nccc(-c2cccnc2)n1 [Gleevec™, Imatinib mesylate]",,,,did not significantly effect PI3K activation,decrease in phosphorylation of MET
